From ChEMBL document CHEMBL3045325, “Comparative Studies of Elicitors That Induce Phytoalexin in Oats” (1996)
Calls of active or inactive are those of the source. No cut-off for these calls is given here.

Experiments:
Avena sativa [1] = assay: Induction of phytoalexin avenanthramide A secretion in Avena sativa Shokan-1 leaf lower epidermis at 1 mg/ml upto 24 hr; assay type: functional, organism-based
Avena sativa [2] = assay: Induction of phytoalexin secretion in Avena sativa Pc-2 leaf lower epidermis assessed as amount of avenanthramide B at 1 mg/ml by HPLC analysis relative to control; assay type: functional, organism-based
Avena sativa [3] = assay: Induction of phytoalexin secretion in Avena sativa Shokan-1 leaf lower epidermis assessed as amount of avenanthramide D at 1 mg/ml by HPLC analysis relative to control; assay type: functional
Avena sativa [4] = assay: Induction of phytoalexin secretion in Avena sativa Pc-2 leaf lower epidermis assessed as amount of avenanthramide A at 1 mg/ml by HPLC analysis relative to control; assay type: functional, organism-based
Avena sativa [5] = assay: Induction of electrolyte leakage in Avena sativa Shokan-1 leaf lower epidermis at 1 mg/ml after 24 hr by conductivity test; assay type: functional, organism-based
Avena sativa [6] = assay: Induction of phytoalexin avenanthramide A secretion in Avena sativa Shokan-1 leaf lower epidermis at 1 mg/ml after 24 hr in presence of CaCl2; assay type: functional, organism-based
Avena sativa [7] = assay: Induction of phytoalexin secretion in Avena sativa Pc-2 leaf lower epidermis assessed as amount of avenanthramide D at 1 mg/ml by HPLC analysis relative to control; assay type: functional, organism-based
Avena sativa [8] = assay: Induction of phytoalexin avenanthramide A secretion in Avena sativa Shokan-1 leaf lower epidermis at 1 mg/ml after 24 hr; assay type: functional, organism-based
Avena sativa [9] = assay: Induction of phytoalexin secretion in Avena sativa Shokan-1 leaf lower epidermis assessed as amount of avenanthramide G at 1 mg/ml by HPLC analysis relative to control; assay type: functional
Avena sativa [10] = assay: Induction of phytoalexin secretion in Avena sativa Pc-2 leaf lower epidermis assessed as amount of avenanthramide G at 1 mg/ml by HPLC analysis relative to control; assay type: functional, organism-based
Avena sativa [11] = assay: Induction of phytoalexin secretion in Avena sativa Shokan-1 leaf lower epidermis assessed as amount of avenanthramide A at 1 mg/ml by HPLC analysis relative to control; assay type: functional
Avena sativa [12] = assay: Induction of phytoalexin secretion in Avena sativa Pc-2 leaf lower epidermis assessed as amount of avenanthramide L at 1 mg/ml by HPLC analysis relative to control; assay type: functional, organism-based
Avena sativa [13] = assay: Induction of phytoalexin secretion in Avena sativa Shokan-1 leaf lower epidermis assessed as amount of avenanthramide L at 1 mg/ml by HPLC analysis relative to control; assay type: functional
Avena sativa [14] = assay: Induction of phytoalexin secretion in Avena sativa Shokan-1 leaf lower epidermis assessed as amount of avenanthramide B at 1 mg/ml by HPLC analysis relative to control; assay type: functional
Avena sativa [15] = assay: Induction of phytoalexin secretion in Avena sativa Shokan-1 leaf lower epidermis assessed as amount of avenanthramide G at 0.1 mg/ml by HPLC analysis relative to control; assay type: functional
Avena sativa [16] = assay: Induction of phytoalexin secretion in Avena sativa Shokan-1 leaf lower epidermis assessed as amount of avenanthramide B at 0.1 mg/ml by HPLC analysis relative to control; assay type: functional
Avena sativa [17] = assay: Induction of phytoalexin secretion in Avena sativa Pc-2 leaf lower epidermis assessed as amount of avenanthramide L at 0.1 mg/ml by HPLC analysis relative to control; assay type: functional, organism-based
Avena sativa [18] = assay: Induction of phytoalexin avenanthramide A secretion in Avena sativa Shokan-1 leaf lower epidermis at 0.1 mg/ml after 24 hr in presence of CaCl2; assay type: functional, organism-based
Avena sativa [19] = assay: Induction of phytoalexin secretion in Avena sativa Shokan-1 leaf lower epidermis assessed as amount of avenanthramide A at 0.1 mg/ml by HPLC analysis relative to control; assay type: functional
Avena sativa [20] = assay: Induction of phytoalexin secretion in Avena sativa Shokan-1 leaf lower epidermis assessed as amount of avenanthramide L at 0.1 mg/ml by HPLC analysis relative to control; assay type: functional
Avena sativa [21] = assay: Induction of phytoalexin secretion in Avena sativa Pc-2 leaf lower epidermis assessed as amount of avenanthramide G at 0.1 mg/ml by HPLC analysis relative to control; assay type: functional, organism-based
Avena sativa [22] = assay: Induction of phytoalexin secretion in Avena sativa Shokan-1 leaf lower epidermis assessed as amount of avenanthramide D at 0.1 mg/ml by HPLC analysis relative to control; assay type: functional
Avena sativa [23] = assay: Induction of electrolyte leakage in Avena sativa Shokan-1 leaf lower epidermis at 0.1 mg/ml after 24 hr by conductivity test; assay type: functional, organism-based
Avena sativa [24] = assay: Induction of phytoalexin secretion in Avena sativa Pc-2 leaf lower epidermis assessed as amount of avenanthramide A at 0.1 mg/ml by HPLC analysis relative to control; assay type: functional, organism-based
Avena sativa [25] = assay: Induction of phytoalexin secretion in Avena sativa Pc-2 leaf lower epidermis assessed as amount of avenanthramide D at 0.1 mg/ml by HPLC analysis relative to control; assay type: functional, organism-based
Avena sativa [26] = assay: Induction of phytoalexin secretion in Avena sativa Pc-2 leaf lower epidermis assessed as amount of avenanthramide B at 0.1 mg/ml by HPLC analysis relative to control; assay type: functional, organism-based
Avena sativa [27] = assay: Induction of phytoalexin avenanthramide A secretion in Avena sativa Pc-2 leaf lower epidermis at 1 ng/ml after 24 hr in presence of CaCl2; assay type: functional, organism-based
Avena sativa [28] = assay: Induction of phytoalexin avenanthramide A secretion in Avena sativa Pc-2 leaf lower epidermis at 100 ng/ml after 24 hr; assay type: functional, organism-based
Avena sativa [29] = assay: Induction of electrolyte leakage in Avena sativa Pc-2 leaf lower epidermis at 1 ng/ml after 24 hr in presence of CaCl2; assay type: functional, organism-based
Avena sativa [30] = assay: Induction of phytoalexin secretion in Avena sativa Pc-2 leaf lower epidermis assessed as amount of avenanthramide A at 1 ng/ml by HPLC analysis relative to control; assay type: functional
Avena sativa [31] = assay: Induction of phytoalexin secretion in Avena sativa Pc-2 leaf lower epidermis assessed as amount of avenanthramide G at 1 ng/ml by HPLC analysis relative to control; assay type: functional
Avena sativa [32] = assay: Induction of phytoalexin secretion in Avena sativa Pc-2 leaf lower epidermis assessed as amount of avenanthramide D at 1 ng/ml by HPLC analysis relative to control; assay type: functional
Avena sativa [33] = assay: Induction of electrolyte leakage in Avena sativa Pc-2 leaf lower epidermis at 1 ng/ml after 24 hr by conductivity test; assay type: functional, organism-based
Avena sativa [34] = assay: Induction of phytoalexin secretion in Avena sativa Pc-2 leaf lower epidermis assessed as amount of avenanthramide L at 1 ng/ml by HPLC analysis relative to control; assay type: functional
Avena sativa [35] = assay: Induction of phytoalexin avenanthramide A secretion in Avena sativa Pc-2 leaf lower epidermis at 5 mg/ml after 24 hr; assay type: functional, organism-based

With CC(=O)N[C@H]1[C@H](O[C@H]2[C@H](O)[C@@H](NC(C)=O)[C@H](O[C@H]3[C@H](O)[C@@H](NC(C)=O)C(O)O[C@@H]3CO)O[C@@H]2CO)O[C@H](CO)[C@@H](O[C@@H]2O[C@H](CO)[C@@H](O[C@@H]3O[C@H](CO)[C@@H](O)[C@H](O)[C@H]3NC(C)=O)[C@H](O)[C@H]2NC(C)=O)[C@@H]1O (stereo not given in full) [N-ACETYLCHITOPENTAOSE] as the molecule, how does the Activity (Avena sativa [1]) read?
Its Activity is “Active”.

What about the Activity (Avena sativa [2]) of the same molecule?
The Activity was “inactive”.

What about the “fold change (FC)” value (Avena sativa [3]) of the same molecule?
Its value is 1.9.

What about the Activity (Avena sativa [4]) of the same molecule?
The Activity was “inactive”.

And the Activity (Avena sativa [5])?
Its Activity is “inactive”.

What about the Activity (Avena sativa [6]) of the same molecule?
The Activity was “inactive”.

And the Activity (Avena sativa [7])?
The Activity was “inactive”.

And the Activity (Avena sativa [8])?
The Activity was “inactive”.

And the “fold change (FC)” value (Avena sativa [9])?
Its value is 2.8.

What about the Activity (Avena sativa [10]) of the same molecule?
The Activity was “inactive”.

And the “fold change (FC)” value (Avena sativa [11])?
The value was 100.

And the Activity (Avena sativa [12])?
Its Activity is “inactive”.

And the “fold change (FC)” value (Avena sativa [13])?
The value was 20.4.

And the “fold change (FC)” value (Avena sativa [14])?
Its value is 26.

N[C@H]1[C@H](O[C@H]2[C@H](O)[C@@H](N)[C@H](O[C@H]3[C@H](O)[C@@H](N)[C@H](O[C@H]4[C@H](O)[C@@H](N)[C@H](O[C@H]5[C@H](O)[C@@H](N)C(O)O[C@@H]5CO)O[C@@H]4CO)O[C@@H]3CO)O[C@@H]2CO)O[C@H](CO)[C@@H](O)[C@@H]1O (stereo not given in full) [CHITOPENTAOSE] was tested. Which “fold change (FC)” value (Avena sativa [15]) did it give?
Its value is 13.

And the “fold change (FC)” value (Avena sativa [16])?
The value was 3.4.

And the Activity (Avena sativa [17])?
The Activity was “inactive”.

And the Activity (Avena sativa [18])?
The Activity was “inactive”.

And the “fold change (FC)” value (Avena sativa [19])?
Its value is 100.

What about the “fold change (FC)” value (Avena sativa [20]) of the same molecule?
The value was 1.4.

What about the Activity (Avena sativa [21]) of the same molecule?
Its Activity is “inactive”.

And the “fold change (FC)” value (Avena sativa [22])?
Its value is 10.7.

And the Activity (Avena sativa [23])?
Its Activity is “Active”.

What about the Activity (Avena sativa [24]) of the same molecule?
The Activity was “inactive”.

And the Activity (Avena sativa [25])?
The Activity was “inactive”.

And the Activity (Avena sativa [26])?
The Activity was “inactive”.

What does the source list for CC(C)C1OC2=C(CC(C(=O)O)NC(=O)/C(=C/Cl)NC(=O)C1NC(=O)C(NC(=O)C(CC(C)C(Cl)Cl)NC(=O)C(O)O)C(O)CCCN)C(=O)CC2 (stereo not given) [VICTORIN D]?
Activity (Avena sativa [27]): inactive; Activity (Avena sativa [28]): Active; Activity (Avena sativa [29]): inactive; fold change (FC) (Avena sativa [30]): 100; fold change (FC) (Avena sativa [31]): 84.6; fold change (FC) (Avena sativa [32]): 38.4; Activity (Avena sativa [33]): Active; fold change (FC) (Avena sativa [34]): 3; Activity (Avena sativa [35]): inactive
